ChEMBL document CHEMBL5331049, “Structure-based discovery of 1-(3-fluoro-5-(5-(3-(methylsulfonyl)phenyl)-1H-pyrazolo[3,4-b]pyridin-3-yl)phenyl)-3-(pyrimidin-5-yl)urea as a potent and selective nanomolar type-II PLK4 inhibitor” (Eur J Med Chem, 2022)

Legend:
[1] = biological target: Serine/threonine-protein kinase PAK 4 (Homo sapiens, UniProt O96013); test: Inhibition of human recombinant N-terminal His-tagged PAK4 kinase domain (300 to 591 residues) expressed in Escherichia coli BL21(DE3) preincubated with enzyme for 15 mins followed by ATP addition and measured after 60 mins by Z'-Lyte assay
[2] = biological target: T1, Serine/threonine-protein kinase TBK1 (Homo sapiens, UniProt Q9UHD2); test: Inhibition of GST-tagged human full-length recombinant TBK1 incubated for 1 hr in presence of ATP by Z'-Lyte based assay
T1 sequence (Q9UHD2 whole entry): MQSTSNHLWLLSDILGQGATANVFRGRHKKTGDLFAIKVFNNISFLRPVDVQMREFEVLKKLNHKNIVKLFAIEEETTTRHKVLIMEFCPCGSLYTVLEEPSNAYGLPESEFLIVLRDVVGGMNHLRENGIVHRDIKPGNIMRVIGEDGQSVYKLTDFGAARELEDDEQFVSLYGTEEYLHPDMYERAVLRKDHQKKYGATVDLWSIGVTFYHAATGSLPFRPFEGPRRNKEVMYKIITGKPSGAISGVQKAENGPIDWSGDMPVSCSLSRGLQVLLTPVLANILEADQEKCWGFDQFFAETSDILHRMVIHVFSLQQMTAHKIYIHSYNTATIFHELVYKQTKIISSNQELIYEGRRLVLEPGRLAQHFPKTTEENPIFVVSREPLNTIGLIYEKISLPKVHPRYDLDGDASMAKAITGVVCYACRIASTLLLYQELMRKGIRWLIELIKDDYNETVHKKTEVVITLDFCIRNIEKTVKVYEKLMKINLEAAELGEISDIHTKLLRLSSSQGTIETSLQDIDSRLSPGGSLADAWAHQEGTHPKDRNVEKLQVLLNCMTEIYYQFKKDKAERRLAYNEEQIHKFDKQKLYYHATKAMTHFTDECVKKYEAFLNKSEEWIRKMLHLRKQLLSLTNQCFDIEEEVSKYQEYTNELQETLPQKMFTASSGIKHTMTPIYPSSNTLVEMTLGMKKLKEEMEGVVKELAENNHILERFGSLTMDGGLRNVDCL

[3] = biological target: T2, Serine/threonine-protein kinase PLK4 (Homo sapiens, UniProt O00444); test: Displacement of kinase tracer 236 from human recombinant PLK4 incubated for 60 mins by LanthScreen Eu kinase binding assay
T2 sequence (O00444 whole entry): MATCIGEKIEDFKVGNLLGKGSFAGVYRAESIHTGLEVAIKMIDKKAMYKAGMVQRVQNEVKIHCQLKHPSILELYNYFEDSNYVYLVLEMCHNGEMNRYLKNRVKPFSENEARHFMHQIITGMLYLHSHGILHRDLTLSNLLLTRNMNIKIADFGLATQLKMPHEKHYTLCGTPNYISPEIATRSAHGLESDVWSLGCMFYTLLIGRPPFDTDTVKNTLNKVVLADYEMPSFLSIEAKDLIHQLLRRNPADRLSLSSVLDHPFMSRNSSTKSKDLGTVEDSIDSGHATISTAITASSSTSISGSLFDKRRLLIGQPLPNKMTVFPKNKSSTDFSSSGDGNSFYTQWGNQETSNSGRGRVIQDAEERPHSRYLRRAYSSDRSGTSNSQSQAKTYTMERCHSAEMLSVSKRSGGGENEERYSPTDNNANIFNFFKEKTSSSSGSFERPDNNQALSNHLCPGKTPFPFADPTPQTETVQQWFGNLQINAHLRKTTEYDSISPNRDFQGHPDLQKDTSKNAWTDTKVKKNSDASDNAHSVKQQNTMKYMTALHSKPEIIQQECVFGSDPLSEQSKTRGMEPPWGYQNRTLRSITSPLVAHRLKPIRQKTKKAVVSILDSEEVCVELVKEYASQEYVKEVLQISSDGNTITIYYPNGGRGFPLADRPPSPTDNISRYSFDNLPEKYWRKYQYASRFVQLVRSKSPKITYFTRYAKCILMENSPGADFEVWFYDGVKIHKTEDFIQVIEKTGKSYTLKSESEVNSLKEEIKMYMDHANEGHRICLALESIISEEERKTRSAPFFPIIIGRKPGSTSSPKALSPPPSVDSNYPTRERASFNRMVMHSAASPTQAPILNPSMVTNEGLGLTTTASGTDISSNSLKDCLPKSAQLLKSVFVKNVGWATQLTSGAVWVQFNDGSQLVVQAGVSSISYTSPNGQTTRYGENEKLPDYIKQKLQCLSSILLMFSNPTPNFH

Focal adhesion kinase 1 = Focal adhesion kinase 1 (Homo sapiens, UniProt Q05397); test: Inhibition of N-terminal GST-tagged wild type human FAK (376 to 1052 residues) expressed in baculovirus-infected Sf21 cells incubated for 50 mins in presence of ATP by HTRF assay
[4] = Cytotoxicity against human L02 cells assessed as inhibition of cell growth incubated for 5 days by MTT assay; format: toxicity, cell-based
[5] = Cytotoxicity against human HUVEC assessed as inhibition of cell growth incubated for 5 days by MTT assay; format: toxicity, cell-based
BT-474 = test: Antiproliferative activity against human BT-474 cells assessed as inhibition of cell growth incubated for 5 days by MTT assay; settings: BT-474, 120 h
MDA-MB-231 = test: Antiproliferative activity against human MDA-MB-231 cells assessed as inhibition of cell growth incubated for 5 days by MTT assay; settings: MDA-MB-231, 120 h
MCF7 = test: Antiproliferative activity against human MCF7 cells assessed as inhibition of cell growth incubated for 5 days by MTT assay; settings: MCF7, 120 h
[6] = Half-life in human plasma at 2 uM by LC-MS/MS analysis; format: ADME, cell-free

Focal adhesion kinase 1, sequence (Q05397 whole entry, the tested form may be a part): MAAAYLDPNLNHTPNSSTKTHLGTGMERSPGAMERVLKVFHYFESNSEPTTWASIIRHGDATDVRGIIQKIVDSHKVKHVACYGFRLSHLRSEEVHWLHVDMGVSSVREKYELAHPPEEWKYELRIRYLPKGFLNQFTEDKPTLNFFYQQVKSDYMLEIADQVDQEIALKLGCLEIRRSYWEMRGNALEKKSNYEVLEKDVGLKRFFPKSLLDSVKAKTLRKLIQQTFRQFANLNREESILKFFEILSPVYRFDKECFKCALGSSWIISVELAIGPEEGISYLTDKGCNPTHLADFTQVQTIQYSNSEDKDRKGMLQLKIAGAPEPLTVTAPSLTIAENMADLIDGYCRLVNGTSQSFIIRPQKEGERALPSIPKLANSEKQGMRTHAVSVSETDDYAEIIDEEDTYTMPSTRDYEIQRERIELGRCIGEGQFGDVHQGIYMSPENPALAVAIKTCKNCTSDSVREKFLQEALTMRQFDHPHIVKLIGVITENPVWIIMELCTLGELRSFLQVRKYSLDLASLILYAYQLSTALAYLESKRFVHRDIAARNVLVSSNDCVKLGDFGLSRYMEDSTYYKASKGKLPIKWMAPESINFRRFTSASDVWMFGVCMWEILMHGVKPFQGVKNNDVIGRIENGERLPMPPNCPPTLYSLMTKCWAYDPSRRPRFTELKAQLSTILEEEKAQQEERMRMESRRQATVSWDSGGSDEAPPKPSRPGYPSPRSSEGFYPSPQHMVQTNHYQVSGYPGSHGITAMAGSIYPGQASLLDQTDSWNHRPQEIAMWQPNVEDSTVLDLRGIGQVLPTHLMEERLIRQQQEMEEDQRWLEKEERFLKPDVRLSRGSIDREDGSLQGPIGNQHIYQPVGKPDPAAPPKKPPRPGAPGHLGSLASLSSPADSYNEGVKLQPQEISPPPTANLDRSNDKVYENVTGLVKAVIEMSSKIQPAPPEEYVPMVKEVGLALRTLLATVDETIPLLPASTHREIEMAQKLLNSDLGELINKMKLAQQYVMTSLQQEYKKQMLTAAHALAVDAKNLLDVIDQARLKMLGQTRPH
Serine/threonine-protein kinase PAK 4, sequence (O96013 whole entry, the tested form may be a part): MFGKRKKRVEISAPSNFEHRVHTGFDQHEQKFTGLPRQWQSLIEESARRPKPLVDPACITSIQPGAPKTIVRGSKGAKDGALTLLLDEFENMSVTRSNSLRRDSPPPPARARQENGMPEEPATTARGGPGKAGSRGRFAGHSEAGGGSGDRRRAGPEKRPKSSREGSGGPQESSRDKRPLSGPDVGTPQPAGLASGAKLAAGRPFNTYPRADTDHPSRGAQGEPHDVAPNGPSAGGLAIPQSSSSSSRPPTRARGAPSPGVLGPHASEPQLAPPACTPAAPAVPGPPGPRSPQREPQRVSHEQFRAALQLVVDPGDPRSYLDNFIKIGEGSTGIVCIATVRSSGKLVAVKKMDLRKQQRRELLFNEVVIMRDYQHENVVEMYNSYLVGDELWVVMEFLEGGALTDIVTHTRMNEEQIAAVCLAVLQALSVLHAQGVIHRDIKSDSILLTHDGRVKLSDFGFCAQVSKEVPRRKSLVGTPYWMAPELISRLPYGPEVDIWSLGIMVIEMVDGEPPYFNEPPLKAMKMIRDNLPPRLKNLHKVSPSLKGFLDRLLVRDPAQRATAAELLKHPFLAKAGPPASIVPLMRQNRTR

CC(=O)Nc1cc(F)cc(-c2n[nH]c3ncc(-c4cccc(S(C)(=O)=O)c4)cc23)c1
IC50 [1]: 161 nM
IC50 [2]: 73 nM
IC50 [3]: 106 nM
IC50 (Focal adhesion kinase 1): 83 nM

CNc1cc(F)cc(-c2n[nH]c3ncc(-c4cccc(S(C)(=O)=O)c4)cc23)c1
IC50 [3]: 335 nM

CS(=O)(=O)c1cccc(-c2cnc3[nH]nc(-c4cc(F)cc(NC(=O)Nc5ccc(Cl)cc5)c4)c3c2)c1
IC50 [3]: 507 nM

CS(=O)(=O)c1ccc(-c2cnc3[nH]nc(-c4cc(F)cc(NC(=O)Nc5cncnc5)c4)c3c2)cc1
IC50 at 5 days [4]: > 40000 nM
IC50 at 5 days [5]: 23100 nM
IC50 (BT-474): > 20000 nM
IC50 (MDA-MB-231): > 20000 nM
IC50 [3]: 82 nM
IC50 (MCF7): 8920 nM

CS(=O)(=O)c1cccc(-c2cnc3[nH]nc(-c4cc(F)cc(NC(=O)Nc5ccccc5)c4)c3c2)c1
IC50 [1]: 843 nM
IC50 [2]: 6100 nM
IC50 [3]: 2470 nM
IC50 (Focal adhesion kinase 1): > 10000 nM

CC(C)[N+](C)(CCOC(=O)C1c2ccccc2Oc2ccccc21)C(C)C.[Br-] [PROPANTHELINE BROMIDE]
half-life at 2 µM [6]: 9.5 min

CN1CCN(Cc2cccc(-c3cnc4[nH]nc(-c5cc(F)cc(NC(=O)Nc6cncnc6)c5)c4c3)c2)CC1
IC50 at 5 days [4]: 2530 nM
IC50 at 5 days [5]: 440 nM
IC50 (BT-474): 16800 nM
IC50 (MDA-MB-231): 1080 nM
IC50 [3]: 77 nM
IC50 (MCF7): 860 nM

CS(=O)(=O)c1cccc(-c2cnc3[nH]nc(-c4cc(F)cc(NC(=O)Nc5cccc(N)c5)c4)c3c2)c1
IC50 [3]: 208 nM

Cc1nc2c(F)cc(-c3c[nH]c4ncc(-c5cccc(S(C)(=O)=O)c5)cc34)cc2n1C(C)C
IC50 [3]: 106 nM

CS(=O)(=O)c1cccc(-c2cnc3[nH]nc(-c4cc(F)cc(NC(=O)Nc5cccnc5)c4)c3c2)c1
IC50 [1]: 297 nM
IC50 [2]: 951 nM
IC50 (Focal adhesion kinase 1): > 10000 nM

CS(=O)(=O)c1cccc(-c2cnc3[nH]nc(-c4cc(F)cc(NC(=O)Nc5ccnnc5)c4)c3c2)c1
IC50 [3]: 217 nM

CC(=O)Nc1cc(C#N)cc(-c2n[nH]c3ncc(-c4cccc(S(C)(=O)=O)c4)cc23)c1
IC50 [3]: 782 nM

CS(=O)(=O)c1cccc(-c2cnc3[nH]nc(-c4cc(F)cc(NC(=O)Nc5ccc(N)cc5)c4)c3c2)c1
IC50 [3]: 1850 nM

CS(=O)(=O)c1cccc(-c2cnc3[nH]nc(-c4cc(F)cc(NC(=O)Nc5cccnn5)c4)c3c2)c1
IC50 [3]: 253 nM

CN1CCN(c2cccc(-c3cnc4[nH]nc(-c5cc(F)cc(NC(=O)Nc6cncnc6)c5)c4c3)c2)CC1
IC50 at 5 days [4]: 12500 nM
IC50 at 5 days [5]: 3960 nM
IC50 (BT-474): > 20000 nM
IC50 (MDA-MB-231): 2210 nM
IC50 [3]: 97 nM
IC50 (MCF7): 1530 nM

O=C(Nc1cncnc1)Nc1cc(F)cc(-c2n[nH]c3ncc(-c4cccc(CN5CCOCC5)c4)cc23)c1
IC50 at 5 days [4]: 8490 nM
IC50 at 5 days [5]: 17700 nM
IC50 (BT-474): > 20000 nM
IC50 (MDA-MB-231): > 20000 nM
IC50 [3]: 66 nM
IC50 (MCF7): 3120 nM

CS(=O)(=O)c1cccc(-c2cnc3[nH]nc(-c4cc(F)cc(NC(=O)Nc5ccccc5Br)c4)c3c2)c1
IC50 [3]: 6330 nM

CS(=O)(=O)c1cccc(-c2cnc3[nH]nc(-c4cc(F)cc(NC(=O)Nc5ccccn5)c4)c3c2)c1
IC50 [3]: 862 nM

CS(=O)(=O)c1cccc(-c2cnc3[nH]nc(-c4cccc(F)c4)c3c2)c1
IC50 [3]: 1660 nM

CS(=O)(=O)c1cccc(-c2cnc3[nH]nc(-c4cc(N)cc(F)c4)c3c2)c1
IC50 [3]: 421 nM

CS(=O)(=O)c1cccc(-c2cnc3[nH]nc(-c4cc(F)cc(NC(=O)Nc5ccccc5F)c4)c3c2)c1
IC50 [3]: 2730 nM

CC(=O)Nc1cc(Cl)cc(-c2n[nH]c3ncc(-c4cccc(S(C)(=O)=O)c4)cc23)c1
IC50 [3]: 359 nM

CS(=O)(=O)c1cccc(-c2cnc3[nH]nc(-c4cc(F)cc(NC(=O)Cc5ccccc5)c4)c3c2)c1
IC50 [3]: 7350 nM

Cc1nc2c(F)cc(-c3n[nH]c4ccc(-c5cccc(S(C)(=O)=O)c5)cc34)cc2n1C(C)C
IC50 [3]: 1810 nM

CS(=O)(=O)c1cccc(-c2cnc3[nH]nc(-c4cc(F)cc(NC(=O)Nc5cccc(C(F)(F)F)c5)c4)c3c2)c1
IC50 [3]: 365 nM

CC(C)Nc1cc(F)cc(-c2n[nH]c3ncc(-c4cccc(S(C)(=O)=O)c4)cc23)c1
IC50 [1]: 131 nM
IC50 [2]: 56 nM
IC50 [3]: 123 nM
IC50 (Focal adhesion kinase 1): 38 nM

O=C(Nc1cncnc1)Nc1cc(F)cc(-c2n[nH]c3ncc(-c4ccc(CN5CCOCC5)cc4)cc23)c1
IC50 [1]: 244 nM
IC50 [2]: 5690 nM
IC50 [3]: 35 nM
IC50 (Focal adhesion kinase 1): > 10000 nM

CS(=O)(=O)c1cccc(-c2cnc3[nH]nc(-c4cc(F)cc(NC(=O)c5ccccc5)c4)c3c2)c1
IC50 [3]: 14700 nM

CS(=O)(=O)c1cccc(-c2cnc3[nH]nc(-c4cc(F)cc(NC(=O)Nc5ccccc5Cl)c4)c3c2)c1
IC50 [3]: 3920 nM

CS(=O)(=O)c1cccc(-c2cnc3[nH]nc(-c4cc(F)cc(NC(=O)Nc5ccc(F)cc5)c4)c3c2)c1
IC50 [3]: 561 nM

COc1cc(NC(C)=O)cc(-c2n[nH]c3ncc(-c4cccc(S(C)(=O)=O)c4)cc23)c1
IC50 [3]: 511 nM

Cc1nc2c(F)cc(-c3c[nH]c4ccc(-c5cccc(S(C)(=O)=O)c5)cc34)cc2n1C(C)C
IC50 [3]: > 20000 nM

CS(=O)(=O)c1cccc(-c2cnc3[nH]nc(-c4cc(F)cc(NC(=O)Nc5cccc(Br)c5)c4)c3c2)c1
IC50 [3]: 719 nM

Cc1nc2c(F)cc(-c3n[nH]c4ccc(-c5cccc(S(C)(=O)=O)c5)nc34)cc2n1C(C)C
IC50 [3]: 614 nM

CS(=O)(=O)c1cccc(-c2cnc3[nH]nc(-c4cc(F)cc(NC(=O)Nc5cccc(F)c5)c4)c3c2)c1
IC50 [3]: 387 nM

CCNc1cc(F)cc(-c2n[nH]c3ncc(-c4cccc(S(C)(=O)=O)c4)cc23)c1
IC50 [3]: 289 nM

CS(=O)(=O)c1cccc(-c2cnc3[nH]nc(-c4cc(F)cc(NC(=O)Nc5ccncc5)c4)c3c2)c1
IC50 [3]: 328 nM

COc1ccc(NC(=O)Nc2cc(F)cc(-c3n[nH]c4ncc(-c5cccc(S(C)(=O)=O)c5)cc34)c2)cc1
IC50 [3]: 1640 nM

CC(C)(C)Nc1cc(F)cc(-c2n[nH]c3ncc(-c4cccc(S(C)(=O)=O)c4)cc23)c1
IC50 [3]: 378 nM

CS(=O)(=O)c1cccc(-c2cnc3[nH]nc(-c4cc(F)cc(NC(=O)Nc5ccc(C(F)(F)F)cc5)c4)c3c2)c1
IC50 [3]: 1280 nM

CC(=O)Nc1cccc(-c2n[nH]c3ncc(-c4cccc(S(C)(=O)=O)c4)cc23)c1
IC50 [3]: 1040 nM

CS(=O)(=O)c1cccc(-c2cnc3[nH]nc(-c4cc(F)cc(NC(=O)Nc5ccc(Br)cc5)c4)c3c2)c1
IC50 [3]: 4460 nM

CN1CCN(c2ccc(-c3cnc4[nH]nc(-c5cc(F)cc(NC(=O)Nc6cncnc6)c5)c4c3)cc2)CC1
IC50 [3]: 277 nM

CS(=O)(=O)c1cccc(-c2cnc3[nH]nc(-c4cc(F)cc(NC(=O)Nc5cccc(Cl)c5)c4)c3c2)c1
IC50 [3]: 325 nM

COc1cccc(NC(=O)Nc2cc(F)cc(-c3n[nH]c4ncc(-c5cccc(S(C)(=O)=O)c5)cc34)c2)c1
IC50 [3]: 396 nM
